Where a name gives a salt, the structure may show the parent alone. Read-outs that look alike come from different tables or passages of the source.
Assays:
[1] = biological target: MELK (Homo sapiens, UniProt Q14680); experiment: Kinase assay (IMAP fluorescence polarization, FITC-labeled histone H3 peptide); format: biochemical; conditions: 50 micro-M ATP
Method: MELK activity was determined in the presence or absence of compounds using fluorescein isothiocyanate-labeled (FITC-labeled) histone H3 peptide as a substrate. […] The serially diluted compounds, 0.8 ng/micro-L […] (Carna Biosciences) and 100 nM FITC-labeled histone H3 peptide were reacted in a reaction buffer (20 mM HEPES, 0.01% Tween-20, 0.3 mM MgCl2, 2 mM dithiothreitol, 50 micro-M ATP, pH 7.4) at room temperature for 1 hour. The reaction was stopped by the addition of three fold assay volume of progressive binding solution. […] IC50 values were calculated by nonlinear four parameter fit using SigmaPlot, version 10.0 (Systat Software, Inc.).

[2] = tested on: 22Rv1 cells; experiment: Cell-based assay, anti-proliferative activity (Cell Counting Kit-8, 72 hours); set-up: species or system human; conditions: read-out: IC50 (μM) (22Rvl)
Method: (§1) Active candidate inhibitors against MELK were evaluated for their target-specific cytotoxicity using 22Rv1, T47D, A549, DU4475 and HT-1197 cells was used for negative control. 100 micro-L of cell suspension was seeded onto 96-well microtiter plate (ViewPlate-96FTC, PerkinElmer). The initial cell concentration of 22Rv1, T47D, A549, DU4475, and HT1197 were 3,000 cells/well, 2,000 cells/well and 2,500 cells/well, respectively. Cellular growth was determined using Cell Counting Kit-8 (DOJINDO) at 72 hours after the exposure of the candidate inhibitors. […] Accurate IC50 values were calculated as described previously.

[3] = tested on: A549 cells; experiment: as above; set-up: species or system human; conditions: read-out: IC50 (μM) (A549)
Method: as §1

[4] = tested on: DU4475 cells; experiment: as above; set-up: species or system human; conditions: read-out: IC50 (μM) (DU4475)
Method: as §1

[5] = tested on: T47D cells; experiment: as above; set-up: species or system human; conditions: read-out: IC50 (μM) (T47D)
Method: as §1

[6] = tested on: HT1197 cells; experiment: Cell-based assay, anti-proliferative activity, MELK-negative control (Cell Counting Kit-8, 72 hours); set-up: species or system human; conditions: read-out: IC50 (μM) (HTll97)
Method: as §1, with “100” for “Active candidate inhibitors against MELK were evaluated for their target-specific cytotoxicity using 22Rv1, T47D, A549, DU4475 and HT-1197 cells was used for negative control. 100”

Sequence of MELK (Q14680 whole entry, looked up): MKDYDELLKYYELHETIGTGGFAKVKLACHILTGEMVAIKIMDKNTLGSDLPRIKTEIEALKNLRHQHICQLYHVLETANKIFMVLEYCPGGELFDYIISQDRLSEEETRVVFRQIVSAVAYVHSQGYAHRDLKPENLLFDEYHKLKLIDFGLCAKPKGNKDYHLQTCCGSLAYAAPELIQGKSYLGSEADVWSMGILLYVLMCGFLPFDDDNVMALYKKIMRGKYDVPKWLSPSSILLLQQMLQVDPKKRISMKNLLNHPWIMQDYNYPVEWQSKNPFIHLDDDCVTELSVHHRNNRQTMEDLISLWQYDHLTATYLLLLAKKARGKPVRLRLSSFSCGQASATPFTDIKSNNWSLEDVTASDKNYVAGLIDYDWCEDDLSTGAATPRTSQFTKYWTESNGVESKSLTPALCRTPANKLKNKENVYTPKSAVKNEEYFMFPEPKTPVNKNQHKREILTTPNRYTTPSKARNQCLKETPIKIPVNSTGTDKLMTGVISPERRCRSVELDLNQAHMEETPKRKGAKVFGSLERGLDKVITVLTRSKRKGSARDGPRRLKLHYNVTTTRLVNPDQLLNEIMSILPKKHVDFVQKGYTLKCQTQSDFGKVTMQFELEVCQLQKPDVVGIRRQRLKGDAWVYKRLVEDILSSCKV

Molecule	IC50 [1] [µM]	IC50 ([2]; Homo sapiens, 22Rv1, 72 h) [µM]	IC50 ([3]; Homo sapiens, A549, 72 h) [µM]	IC50 ([4]; Homo sapiens, DU-4475, 72 h) [µM]	IC50 ([5]; Homo sapiens, T47D, 72 h) [µM]	IC50 ([6]; Homo sapiens, HT1197, 72 h) [µM]	IC50 ([2]; 22Rv1 cells, 72 hours) [µM]	IC50 ([3]; A549 cells, 72 hours) [µM]	IC50 ([4]; DU4475 cells, 72 hours) [µM]	IC50 ([5]; T47D cells, 72 hours) [µM]	IC50 ([6]; HT1197 cells (MELK-negative control), 72 hours) [µM]
CC(=O)c1cnc2ccc(-c3cc(Cl)c(O)c(Cl)c3)nc2c1Nc1cccc(CCN2CCCC2)c1 [Example 19, 1-[6-(3,5-Dichloro-4-hydroxyphenyl)-4-{3-[2-(pyrrolidin-1-yl)ethyl]phenylamino}-1,5-naphthyridin-3-yl]ethanone dihydrochloride]	0.032	0.63	0.14	0.11	0.59	7	–	–	–	–	–
CC(=O)c1cnc2ccc(-c3cc(F)c(O)c(Cl)c3)nc2c1Nc1ccc(CN2CCN(C)CC2)cc1 [Example 35, 1-[6-(3-Chloro-5-fluoro-4-hydroxyphenyl)-4-{4-[(4-methylpiperazin-1-yl)methyl]phenylamino}-1,5-naphthyridin-3-yl]ethanone trihydrochloride]	0.037	0.65	0.41	0.31	0.22	3.8	–	–	–	–	–
CC(=O)c1cnc2ccc(-c3cc(F)c(O)c(F)c3)nc2c1N[C@H]1CC[C@H](CN(C)C)CC1 [Example 50, 1-[6-(3,5-Difluoro-4-hydroxyphenyl)-4-{trans-4-[(dimethylamino)methyl]cyclohexylamino}-1,5-naphthyridin-3-yl]ethanone dihydrochloride]	0.0019	0.017	0.015	0.0053	0.0061	0.08	–	–	–	–	–
COc1cc(-c2ccc3ncc(C(C)=O)c(N[C@H]4CC[C@H](CN(C)C)CC4)c3n2)cc(Cl)c1O [Example 8, 1-(6-(3-Chloro-4-hydroxy-5-methoxyphenyl)-4-{trans-4-[(dimethylamino)methyl]cyclohexyl-amino}-1,5-naphthyridin-3-yl)ethanone dihydrochloride]	0.0015	0.044	0.024	0.0064	0.013	0.24	–	–	–	–	–
CN(C)C[C@H]1CC[C@H](Nc2c(C(=O)C3CC3)cnc3ccc(-c4cc(Cl)c(O)c(Cl)c4)nc23)CC1 [Example 4, Cyclopropyl(6-(3,5-dichloro-4-hydroxyphenyl)-4-{trans-4-[(dimethylamino)methyl]-cyclohexylamino}-1,5-naphthyridin-3-yl)methanone dihydrochloride]	0.0005	0.0064	0.0062	0.0026	0.0055	0.036	–	–	–	–	–
CN(C)C[C@H]1CC[C@H](Nc2c(S(C)(=O)=O)cnc3ccc(-c4cc(F)c(O)c(Cl)c4)nc23)CC1 [Example 13, 6-(3-Chloro-5-fluoro-4-hydroxyphenyl)-4-({trans-4-[(dimethylamino)methyl]cyclohexyl}-amino)-3-methylsulfonyl-1,5-naphthyridine dihydrochloride]	0.0014	0.019	0.073	0.0068	0.013	0.32	–	–	–	–	–
CN(C)C[C@H]1CC[C@H](Nc2c(C(=O)C3CCC3)cnc3ccc(-c4cc(Cl)c(O)c(Cl)c4)nc23)CC1 [Example 211, (6-(3,5-dichloro-4-hydroxyphenyl)-4-((4-[(dimethylamino)methyl{cyclohexyl)amino)-1,5-naphthyridin-3-yl) (cyclobutyl)methanone dihydrochloride]	0.0027	0.0072	0.0076	0.003	0.0034	0.0077	–	–	–	–	–
CC(=O)c1cnc2ccc(-c3cc(F)c(O)c(Cl)c3)nc2c1NC1CCN(C)CC1 [Example 46, 1-{6-(3-Chloro-5-fluoro-4-hydroxyphenyl)-4-[(1-methylpiperidin-4-yl)amino]-1,5-naphthyridin-3-yl}ethanone]	0.0061	0.14	0.098	0.14	0.092	0.53	–	–	–	–	–
(R)-1-(4-{[6-(3-aminopiperidin-1- yl)pyridin-3-yl]amino}-6-(3,5- dichloro-4-hydroxyphenyl)-1,5- naphthyridin-3-yl)-2-methylpropan-1- one trihydrochloride [Example 215]	0.0065	–	–	–	–	–	0.032	0.083	0.014	0.016	1.7
CC(=O)c1cnc2ccc(-c3cc(F)c(O)c(Cl)c3)nc2c1NC[C@H]1CC[C@H](N(C)C)CC1 [Example 90, 1-[6-(3-Chloro-5-fluoro-4-hydroxyphenyl)-4-{[trans-4-(dimethylamino)-cyclohexyl]methylamino}-1,5-naphthyridin-3-yl]ethanone dihydrochloride]	0.0024	0.052	0.12	0.027	0.03	10	–	–	–	–	–
CC(=O)c1cnc2ccc(-c3cc(Cl)c(O)c(Cl)c3)nc2c1Nc1ccc(OCCN(C)C)nc1 [Example 21, 1-[6-(3,5-Dichloro-4-hydroxyphenyl)-4-{6-[2-(dimethylamino)ethoxy]pyridin-3-ylamino}-1,5-naphthyridin-3-yl)ethanone dihydrochloride]	0.0046	0.27	0.21	0.096	0.1	2.3	–	–	–	–	–
CC(=O)c1cnc2ccc(-c3cc(F)c(O)c(Cl)c3)nc2c1Nc1ccc(N2CCCC(N)C2)nc1 (stereo not drawn) [Example 65, 1-(4-{[6-(3-Aminopiperidin-1-yl)pyridin-3-yl]amino}-6-(3-chloro-5-fluoro-4-hydroxyphenyl)-1,5-naphthyridin-3-yl)ethanone trihydrochloride]	0.0031	0.013	0.021	0.015	0.0047	0.74	–	–	–	–	–
CC(=O)c1cnc2ccc(N3CCC(O)C3)nc2c1N[C@H]1CC[C@H](CN2CCC(O)C2)CC1 (stereo partly drawn) [Example 77, 1-(6-(3-Hydroxypyrrolidin-1-yl)-4-{trans-4-[(3-hydroxypyrrolidin-1-yl)methyl]-cyclohexylamino}-1,5-naphthyridin-3-yl)ethanone]	0.74	10	10	10	10	10	–	–	–	–	–
CC(=O)c1cnc2ccc(-c3cn[nH]c3)nc2c1N[C@H]1CC[C@H](CN(C)C)CC1 [Example 42, 1-(4-{trans-4-[(Dimethylamino)methyl]cyclohexylamino}-6-(1H-pyrazol-4-yl)-1,5-naphthyridin-3-yl)ethanone trihydrochloride]	0.017	0.063	0.049	0.045	0.036	0.06	–	–	–	–	–
COc1cc(-c2ccc3ncc(S(C)(=O)=O)c(Nc4ccc(CN(C)C)cc4)c3n2)cc(Cl)c1O [Example 18, 2-Chloro-4-(8-{4-[(dimethylamino)methyl]phenylamino}-7-(methylsulfonyl)-1,5-naphthyridin-2-yl)-6-methoxyphenol dihydrochloride]	0.005	1	0.69	0.31	0.32	3.8	–	–	–	–	–
CC(=O)c1cnc2ccc(-c3cc(Cl)c(O)c(Cl)c3)nc2c1Nc1ccc(N2CCC[C@@H](N)C2)nc1 [Example 95, (R)-1-{4-[6-(3-Aminopiperidin-1-yl)pyridin-3-ylamino]-6-(3,5-dichloro-4-hydroxyphenyl)-1,5-naphthyridin-3-yl}ethanone trihydrochloride]	0.002	0.029	0.088	0.03	0.022	1.9	–	–	–	–	–
CC(=O)c1cnc2ccc(-c3cc(F)c(O)c(Cl)c3)nc2c1Nc1ccc(OCCN(C)C)nc1 [Example 22, 1-[6-(3-Chloro-5-fluoro-4-hydroxyphenyl)-4-{6-[2-(dimethylamino)ethoxy]pyridin-3-ylamino}-1,5-naphthyridin-3-yl)ethanone dihydrochloride]	0.015	0.35	0.29	0.31	0.1	3.5	–	–	–	–	–
